Measured values from article PMC6295231 (Clinical cancer research : an official journal of the …, 2018).
Blank lines part the entries; values can stand above or below the molecule they belong to.

Legend:
[1] = test system: ELK1-dependent promoter activation by AR; assay: primary screening assay; type: cell-based; settings: for IC50: Homo sapiens, HeLa, read-out: IC50 for inhibition of ELK1-dependent promoter activation by AR; for IC50 for inhibition of ELK1-dependent promoter activation by AR: primary screening assay, compound dose range of 1-10μM
[2] = test system: ARE-dependent promoter activation by AR; assay: counter screening assay; type: cell-based; settings: words
[3] = easily oxidized; ref [33], [34]; cited from earlier work
[4] = test system: activation of ELK1 by MEK/ERK; type: cell-based; settings: HeLa cells co-transfected
[5] = target: ELK1 (Homo sapiens) (UniProt P19419); settings: cited from earlier work
Sequence of ELK1 (Homo sapiens) (P19419 whole entry): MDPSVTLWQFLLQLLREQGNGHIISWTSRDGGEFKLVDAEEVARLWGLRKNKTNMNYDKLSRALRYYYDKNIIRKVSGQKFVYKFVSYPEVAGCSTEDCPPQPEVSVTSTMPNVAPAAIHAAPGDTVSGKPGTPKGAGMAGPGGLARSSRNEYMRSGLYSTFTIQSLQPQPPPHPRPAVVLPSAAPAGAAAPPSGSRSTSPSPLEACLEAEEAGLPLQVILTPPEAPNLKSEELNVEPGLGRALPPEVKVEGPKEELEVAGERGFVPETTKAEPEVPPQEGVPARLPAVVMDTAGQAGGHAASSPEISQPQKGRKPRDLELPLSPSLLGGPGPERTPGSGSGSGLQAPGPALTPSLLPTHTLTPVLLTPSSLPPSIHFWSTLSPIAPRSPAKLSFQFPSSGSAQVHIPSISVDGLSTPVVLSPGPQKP

[6] = test system: 22Rv1 CRPC cells; assay: colony formation assay, 22Rv1
[7] = test system: HEK293 (adenovirus transformed kidney fibroblasts); assay: growth of AR-negative cells, HEK293; type: cell-based
[8] = test system: AR or AR-V7 protein level; assay: protein level of AR / AR-V7 in PC/CRPC cell lines; type: cell-based
[9] = target: binding of AR to ELK1 (Homo sapiens, UniProt P10275); assay: SPR competition: binding of AR; settings: AR 200 nM
[10] = test system: H1650 (lung adenocarcinoma cells); assay: growth of AR-negative cells, H1650; type: cell-based
[11] = test system: 22Rv1 cells; assay: MTT growth assay, 22Rv1; settings: androgen-independent cells; up to 20 uM
[12] = test system: VCaP cells; assay: MTT growth assay, VCaP; settings: androgen-dependent cells
[13] = target: T1, purified human AR (Homo sapiens, UniProt P10275); assay: surface plasmon resonance, binding to immobilized AR; settings: for Kd: dissociation constant (Kd) for binding to AR, SPR, AR immobilized
T1 sequence (P10275 1-920): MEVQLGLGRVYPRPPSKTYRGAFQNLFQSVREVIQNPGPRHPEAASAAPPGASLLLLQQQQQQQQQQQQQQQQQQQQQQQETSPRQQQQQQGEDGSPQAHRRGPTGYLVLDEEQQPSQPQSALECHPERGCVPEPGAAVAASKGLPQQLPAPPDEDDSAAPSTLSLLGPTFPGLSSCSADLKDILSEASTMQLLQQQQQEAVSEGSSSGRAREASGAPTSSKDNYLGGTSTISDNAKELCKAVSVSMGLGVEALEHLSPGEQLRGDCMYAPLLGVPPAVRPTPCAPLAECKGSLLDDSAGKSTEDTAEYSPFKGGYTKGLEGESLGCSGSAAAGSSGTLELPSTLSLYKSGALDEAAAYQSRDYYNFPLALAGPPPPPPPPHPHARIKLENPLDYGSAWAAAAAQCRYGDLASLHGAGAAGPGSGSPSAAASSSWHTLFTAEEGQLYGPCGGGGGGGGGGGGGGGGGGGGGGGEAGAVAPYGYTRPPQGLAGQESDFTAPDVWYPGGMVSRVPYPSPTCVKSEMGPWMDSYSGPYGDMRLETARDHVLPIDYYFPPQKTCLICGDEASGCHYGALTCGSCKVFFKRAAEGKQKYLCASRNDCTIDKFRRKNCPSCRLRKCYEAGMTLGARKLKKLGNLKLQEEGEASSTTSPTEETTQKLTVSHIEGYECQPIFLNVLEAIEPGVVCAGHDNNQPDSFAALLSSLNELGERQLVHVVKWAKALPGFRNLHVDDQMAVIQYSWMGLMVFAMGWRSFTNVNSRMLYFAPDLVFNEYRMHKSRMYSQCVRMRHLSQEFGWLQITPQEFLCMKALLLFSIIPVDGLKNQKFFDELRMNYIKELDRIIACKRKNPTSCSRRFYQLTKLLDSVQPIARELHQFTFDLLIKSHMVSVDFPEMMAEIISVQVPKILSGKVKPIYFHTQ

[14] = test system: AR recruitment to chromatin in LNCaP cells; assay: chromatin immunoprecipitation; type: cell-based; settings: R1881 10nM + KCI807 20uM, 2h
[15] = target: ELK1 (Homo sapiens, UniProt P19419); assay: surface plasmon resonance, binding to immobilized ELK1; settings: SPR
Sequence of ELK1 (P19419 whole entry): as the sequence (P19419 whole entry) above

[16] = target: association of AR with ELK1 (Homo sapiens, UniProt P10275); assay: BRET assay of association of ELK1 with AR in HEK293T cells; type: cell-based; settings: pre-incubation
[17] = test system: AR target genes in 22Rv1 cells; assay: real time RT-PCR of AR target genes in 22Rv1 cells; type: cell-based; settings: 10 µM, 72h
[18] = test system: AR-V7; assay: hormone-independent promoter activation by AR-V7; type: cell-based; settings: relatively higher concentrations required
[19] = test system: HeLa (cervical cancer cells); assay: growth of AR-negative cells, HeLa; type: cell-based
[20] = test system: PDX-PR011 tumor xenograft; assay: PDX-PR011 patient-derived tumor xenograft in male SCID mice; settings: for tumor growth, PDX-PR011 xenograft: treatment from Day 1 after implantation
[21] = in vivo; settings: SCID, mouse
[22] = plasma/serum levels and metabolites of KCI807 by LC-MS/MS; settings: mice, 250 mg/kg IP alternate days, 6h after last injection
[23] = test system: DU145 (prostate cancer cells); assay: growth of AR-negative cells, DU145; type: cell-based
[24] = test system: LNCaP cells; assay: MTT growth assay, LNCaP; settings: androgen-dependent cells; up to 20 uM
[25] = mouse, in vivo

Molecule: O=c1cc(-c2ccc(O)c(O)c2)oc2cc(O)cc(O)c12 [Hit 1, 5,7,3’,4’-Tetrahydroxyflavone]
IC50 [1]: 1010 nM
inhibition at 10 µM ([1]; Mus musculus, MIN6, 6 h, read-out: inhibition in the primary screen): 80 to 100%
effect on ARE-dependent promoter activation by AR (counter screen) [2]: virtual absence of an effect
stability in vitro [3]: highly unstable

Molecule: O=c1cc(-c2ccccc2)oc2cc(O)cc(O)c12 [5.7-Dihydroxyflavone]
IC50 for inhibition of ELK1-dependent promoter activation by AR [1]: No effect

Molecule: CC(=O)Nc1cccc(-n2c(=O)n(C3CC3)c(=O)c3c(Nc4ccc(I)cc4F)n(C)c(=O)c(C)c32)c1 [trametinib, reference compound]
inhibition of luciferase reporter activation by MEK1 (caMEK1, Gal4-ELK1) [4]: completely inhibited

Molecule: AR (from UniProt P10275)
Kd [5]: 20 nM

Molecule: O=c1cc(-c2cccc(O)c2)oc2cccc(O)c12 [KCI807, 5,3’-Dihydroxyflavone]
concentration beyond which colony growth was virtually completely inhibited [6]: > 125 nM
IC50 [1]: 530 nM
growth of HEK293 cells [7]: did not appreciably affect
expression of AR or AR-V7 proteins [8]: does not affect
blocking of binding of purified AR (analyte) to immobilized ELK1 [9]: blocked binding
growth of H1650 cells [10]: did not appreciably affect
cell growth inhibition, MTT, 22Rv1 [11]: completely inhibited cell growth
cell growth inhibition, MTT, VCaP [12]: most sensitive
inhibition of luciferase reporter activation by MEK1 (caMEK1, Gal4-ELK1) [4]: did not inhibit
dissociation constant for AR relative to that for binding of ELK1 to AR ([13]; ELK1-AR value ref [25]): ~ 3 times
Kd [13]: 69.2 nM
AR recruitment at canonical ARE enhancer sites (KLK3, TMPRSS2) [14]: did not impede
association of AR with chromatin sites at which ELK1 recruits AR [14]: prevented association
binding to immobilized ELK1 [15]: did not bind
BRET coupling between ELK1 and AR [16]: inhibited
expression of AR target genes (mRNA) [17]: decreased expression of only the genes known to be supported synergistically by ELK1 and AR
hormone-independent promoter activation by splice variant AR-V7 [18]: inhibited
growth of HeLa cells [19]: did not appreciably affect
symptoms during PDX-PR011 study ([20]; mouse, in vivo): asymptomatic
weight loss during PDX-PR011 study ([20]; mouse, in vivo): did not show appreciable weight loss
tumor growth, PDX-PR011 xenograft [20]: significantly inhibited
half-life [21]: 360 min
plasma level of unmetabolized compound (median), Day 11 [22]: 387 nM
plasma level of unmetabolized compound (median), Day 19 [22]: 70 nM
growth of DU145 cells [23]: did not appreciably affect
cell growth inhibition, MTT, LNCaP [24]: completely inhibited cell growth
immediate and peri-acute post-injection toxicity (dose determination) [25]: asymptomatic post all doses given

Molecule: O=c1cc(-c2cccc(O)c2)oc2ccccc12 [3’-Hydroxyflavone]
IC50 for inhibition of ELK1-dependent promoter activation by AR [1]: No effect
Kd [13]: 1430 nM

Molecule: O=c1cc(-c2ccc(O)c(O)c2)oc2cccc(O)c12 [5,3’,4’-Trihydroxyflavone]
IC50 [1]: 1010 nM

Molecule: COc1cc(OC)c2c(=O)cc(-c3ccc(OC)c(OC)c3)oc2c1 [5,7,3’,4’-Tetramethoxyflavone]
IC50 for inhibition of ELK1-dependent promoter activation by AR [1]: No effect

Molecule: O=c1cc(-c2ccccc2)oc2cccc(O)c12 [5-Hydroxyflavone]
IC50 [1]: > 10000 nM

Molecule: CNC(=O)c1ccc(N2C(=S)N(c3ccc(C#N)c(C(F)(F)F)c3)C(=O)C2(C)C)cc1F [enzalutamide, reference compound]
cell growth inhibition, MTT, 22Rv1 [11]: only showed partial effects
cell growth inhibition, MTT, VCaP [12]: most sensitive
tumor growth, PDX-PR011 xenograft [20]: insensitive
cell growth inhibition, MTT, LNCaP [24]: only showed partial effects

Molecule: O=c1cc(-c2ccc(O)c(O)c2)oc2ccccc12 [3’.4’-Dihydroxyflavone]
IC50 for inhibition of ELK1-dependent promoter activation by AR [1]: No effect

Next, values leading:

IC50 for inhibition of ELK1-dependent promoter activation by AR [1]: No effect
Molecule: O=c1cc(-c2cccc(O)c2)oc2cc(O)ccc12 [7,3’-Dihydroxyflavone]

IC50 for inhibition of ELK1-dependent promoter activation by AR [1]: No effect
Molecule: COc1cc(-c2cc(=O)c3c(O)cc(O)cc3o2)ccc1O [5,7,4’-Trihydroxy-3’-methoxyflavone]

IC50 [1]: 5480 nM
Molecule: O=c1cc(-c2ccc(O)cc2)oc2cccc(O)c12 [5,4’-Dihydroxyflavone]

IC50 for inhibition of ELK1-dependent promoter activation by AR [1]: No effect
Molecule: O=c1cc(-c2ccc(O)c(O)c2)oc2cc(O)ccc12 [7,3’,4’-Trihydroxyflavone]

IC50 [1]: 4170 nM
Molecule: COc1ccc(-c2cc(=O)c3c(O)c(OC)c(OC)cc3o2)cc1O [5,3’-Dihydroxy-6,7,4’-trimethoxyflavone]

IC50 [1]: 1370 nM
Molecule: COc1ccc(-c2cc(=O)c3c(O)cc(O)cc3o2)cc1O [5,7,3’-Trihydroxy-4’-methoxyflavone]

IC50 for inhibition of ELK1-dependent promoter activation by AR [1]: No effect
Molecule: O=c1cc(-c2ccc(O)cc2)oc2cc(O)ccc12 [7,4’-Dihydroxyflavone]

IC50 for inhibition of ELK1-dependent promoter activation by AR [1]: No effect
Molecule: COc1c(-c2ccc(O)c(O)c2)oc2cc(O)cc(O)c2c1=O [5,7,3’,4’-Tetrahydroxy-3-methoxyflavone]
